Patent US20250092085A1, “SAPONIN-BASED ADJUVANTS AND VACCINES” (ASOCIACIÓN CENTRO DE INVESTIGACIÓN COOPERATIVA EN …, priority 2021, published 2025)

System: anti-OVA IgG antibody response (chicken ovalbumin (OVA) as model antigen)
Assay: In vivo experiment 1: adjuvant activity, anti-OVA IgG antibody production (ELISA of mouse sera)
Set-up: species or system C75BL6 mice
Settings: toxin-free OVA 20 μg + adjuvant 50 μg, three bi-weekly subcutaneous injections, endpoint sera day 42; compared with OVA alone and OVA + prior art compound 13
Method: Total IgG values were calculated using chicken ovalbumin (OVA) as a model antigen for four groups of mice treated with the following subcutaneous injections: i) toxin-free OVA antigen (20 μg) in combination with the known QA-based adjuvant 13 (50 μg) (identified as QA+OVA), ii) toxin-free OVA antigen (20 μg) in combination with the new adjuvant 25 (50 μg) (identified as QA(oxime)+OVA), iii) toxin-free OVA (20 μg) alone as no-adjuvant control group (identified as OVA) and iv) PBS only as negative control (identified as PBS).
Quantification of antibody production. Antibody titers against OVA protein, or against MUC1 and TnMUC1 peptides in the case of the self-adjuvanting vaccine constructs. were measured by an indirect enzyme-linked immunosorbent assay (ELISA). […] Absorbance (OD, 450 nm) was immediately measured using a BioTek® Synergy HT multi-detection microplate reader.
A straightforward proof-of-principle in vivo experiment was carried out to directly compare the adjuvant activities of prior art compound 13 and the compound of the invention 25 in terms of IgG antibody production, using chicken ovalbumin (OVA) as a model antigen. […] Endpoint sera after three immunizations were probed via ELISA assays by coating 96-well plates with toxin-free OVA (0.5 μg/ml) and total IgG optical density (OD) values (day 42) were calculated (FIG. 4).

C[C@H]1O[C@@H](OC2C(OC(=O)[C@]34CCC(C)(C)CC3C3=CCC5C6(C)CC[C@H](O)C(C)(C=NO)[C@@H]6CC[C@@]5(C)[C@]3(C)C[C@@H]4O)O[C@H](CO)[C@H](NC(=O)CCCCCCCCCCC(=O)O)C2O)C(O)C(O)[C@H]1O[C@@H]1OC[C@@H](O)C(O)C1O (stereo partly shown) [Compound 25]
anti-OVA IgG antibody response (total IgG optical density values): significantly higher
